Experimental data as given in patent publication US12595253B2, “Benzamides of pyrazolylamino-pyrimidinyl derivatives, and compositions and methods thereof” (LYNK PHARMACEUTICALS CO. LTD., priority 2019, dated 2026).
pIC50: −log10 of the molar value.

Key:
TYK2 = target: T1, TYK2 (Homo sapiens, UniProt P29597); experiment: TYK2 microfluidic kinase assay (Caliper EZ Reader II, FAM labeled peptide substrate); type: biochemical
T1 construct: purchased Carna Biosciences
Experimental: Compounds were tested against JAK1, JAK2, JAK2V617F and TYK2. Assay Formats: JAK activity was determined in the reaction buffer 50 mM HEPES, 0.01% Brij35, 10 mM MgCl2, 2 mM DTT by a microfluidic assay. The phosphorylation of a FAM labeled peptide substrate was monitored in the Caliper EZ Reader II (Perkin Elmer). The assay condition for each batch of enzyme (Carna Biosciences) was optimized to obtain 10% conversion rate of peptide substrate. The test compounds were dissolved in DMSO to a stock concentration of 10 mM. 3-fold serially diluted compounds with top concentration of 5 μM were pre-incubated with JAK1, JAK2, JAK2V617F or TYK2 at indicated concentrations for 10 min at ambient temperature. The final DMSO concentration of assay mixture was 1%. […] The reaction was stopped by adding 50 mM EDTA. The reaction time for JAK1, JAK2, JAK2V617F and TYK2 was 120 min, 20 min, 30 min and 10 min, respectively. […] And the well without compound but with equivalent DMSO was defined as no inhibition. The percent inhibition was calculated by the following formula. % Inhibition=(Conversionmax−Conversionsample)/(Conversionmax−Conversionmin)*100 • Conversionmax means the conversion rate in the positive well without addition of compound • Conversionmin means the conversion rate in the well without addition of enzyme • Conversionsample means the conversion rate of test compounds The dose-response (percent inhibition) curve was plotted and IC50 values were determined by GraphPad software.

JAK1 = target: T2, JAK1 (Homo sapiens, UniProt P23458); experiment: JAK1 microfluidic kinase assay (Caliper EZ Reader II, FAM labeled peptide substrate); type: biochemical
T2 construct: purchased Carna Biosciences
T2 sequence (P23458 whole entry): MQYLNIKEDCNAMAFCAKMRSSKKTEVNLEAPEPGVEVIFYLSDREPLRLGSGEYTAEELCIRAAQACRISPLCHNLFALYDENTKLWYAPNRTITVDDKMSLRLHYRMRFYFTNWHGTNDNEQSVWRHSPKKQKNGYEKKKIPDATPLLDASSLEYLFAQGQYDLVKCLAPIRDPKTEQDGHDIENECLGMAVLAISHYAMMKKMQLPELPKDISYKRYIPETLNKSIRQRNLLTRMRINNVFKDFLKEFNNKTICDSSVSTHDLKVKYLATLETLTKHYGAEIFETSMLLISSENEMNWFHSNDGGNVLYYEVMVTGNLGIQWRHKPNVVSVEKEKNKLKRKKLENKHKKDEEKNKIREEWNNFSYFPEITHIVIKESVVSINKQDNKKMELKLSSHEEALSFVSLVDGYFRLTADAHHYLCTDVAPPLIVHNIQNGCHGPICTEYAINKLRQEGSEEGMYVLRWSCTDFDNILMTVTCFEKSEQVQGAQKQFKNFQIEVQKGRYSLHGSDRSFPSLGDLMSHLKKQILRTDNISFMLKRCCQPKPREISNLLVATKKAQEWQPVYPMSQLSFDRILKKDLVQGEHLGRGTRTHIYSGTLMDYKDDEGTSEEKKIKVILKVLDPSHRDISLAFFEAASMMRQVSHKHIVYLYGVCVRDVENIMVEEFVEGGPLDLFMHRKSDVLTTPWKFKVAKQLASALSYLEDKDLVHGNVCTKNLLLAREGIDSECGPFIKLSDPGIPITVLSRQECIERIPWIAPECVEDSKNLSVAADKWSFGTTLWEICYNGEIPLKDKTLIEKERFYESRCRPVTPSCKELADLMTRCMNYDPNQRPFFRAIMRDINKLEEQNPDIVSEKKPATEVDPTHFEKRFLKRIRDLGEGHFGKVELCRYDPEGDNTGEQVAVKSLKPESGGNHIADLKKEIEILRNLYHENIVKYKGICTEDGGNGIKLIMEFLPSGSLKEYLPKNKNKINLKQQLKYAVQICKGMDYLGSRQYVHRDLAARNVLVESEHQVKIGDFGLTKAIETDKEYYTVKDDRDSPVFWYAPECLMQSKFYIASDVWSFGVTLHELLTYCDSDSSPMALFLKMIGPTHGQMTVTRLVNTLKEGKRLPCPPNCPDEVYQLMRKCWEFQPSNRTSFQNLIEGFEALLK
In short: (§1)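 Microfluidic mobility-shift kinase assay in 50 mM HEPES, 0.01% Brij35, 10 mM MgCl2, 2 mM DTT. IC50 values come from percent-inhibition curves normalised to uninhibited and enzyme-free controls.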

JAK2V617F = target: T3, JAK2V617F (Homo sapiens, UniProt O60674, V617F); experiment: JAK2V617F microfluidic kinase assay (Caliper EZ Reader II, FAM labeled peptide substrate); type: biochemical; conditions: JAK2V617F 2.5 nM, 1 mM ATP
T3 construct: purchased Carna Biosciences
T3 sequence (O60674 whole entry V617F): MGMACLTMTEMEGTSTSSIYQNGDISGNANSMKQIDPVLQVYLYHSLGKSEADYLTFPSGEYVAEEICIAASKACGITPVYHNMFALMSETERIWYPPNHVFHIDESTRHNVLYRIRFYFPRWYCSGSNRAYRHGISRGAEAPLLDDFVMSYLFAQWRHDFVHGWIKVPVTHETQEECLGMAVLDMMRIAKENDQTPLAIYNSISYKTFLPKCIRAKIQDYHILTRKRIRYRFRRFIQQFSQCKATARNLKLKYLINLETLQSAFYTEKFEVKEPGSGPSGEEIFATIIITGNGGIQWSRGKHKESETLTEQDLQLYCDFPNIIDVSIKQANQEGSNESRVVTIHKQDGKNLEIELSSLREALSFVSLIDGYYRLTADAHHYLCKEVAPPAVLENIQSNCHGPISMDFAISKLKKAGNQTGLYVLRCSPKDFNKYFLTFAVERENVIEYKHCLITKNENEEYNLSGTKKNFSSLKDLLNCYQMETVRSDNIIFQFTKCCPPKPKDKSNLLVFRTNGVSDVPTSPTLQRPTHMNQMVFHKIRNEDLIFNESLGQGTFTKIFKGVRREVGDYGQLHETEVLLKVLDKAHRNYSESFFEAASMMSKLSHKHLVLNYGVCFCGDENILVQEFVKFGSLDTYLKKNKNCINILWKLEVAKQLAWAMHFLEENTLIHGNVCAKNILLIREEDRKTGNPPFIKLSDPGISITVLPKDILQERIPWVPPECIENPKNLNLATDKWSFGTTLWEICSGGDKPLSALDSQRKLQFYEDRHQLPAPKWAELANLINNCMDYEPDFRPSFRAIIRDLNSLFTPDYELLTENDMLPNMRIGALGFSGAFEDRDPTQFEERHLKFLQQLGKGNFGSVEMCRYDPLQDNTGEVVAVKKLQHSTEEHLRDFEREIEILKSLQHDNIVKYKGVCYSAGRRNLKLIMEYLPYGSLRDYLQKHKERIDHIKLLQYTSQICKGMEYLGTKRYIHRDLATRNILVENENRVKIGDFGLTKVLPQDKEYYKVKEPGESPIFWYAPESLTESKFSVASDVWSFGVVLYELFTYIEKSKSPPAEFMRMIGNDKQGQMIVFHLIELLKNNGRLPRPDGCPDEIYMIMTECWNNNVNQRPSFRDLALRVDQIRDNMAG
In short: as §1

JAK2 = target: T4, JAK2 (Homo sapiens, UniProt O60674); experiment: JAK2 microfluidic kinase assay (Caliper EZ Reader II, FAM labeled peptide substrate); type: biochemical
T4 construct: purchased Carna Biosciences
T4 sequence (O60674 whole entry): as the sequence (O60674 whole entry V617F) above, with F617V counted along it
In short: as §1

[1] = Liver microsomes study, Phase I stability (HLM); type: in vitro ADME, human; conditions: pH 7.4; human liver microsomes 0.5 mg/mL, 1 μM test article; read-out: HLM Clint
Experimental: Commercially available liver microsomes (MsLM vendor: XENOTECH; RLM, DLM, MkL, HLM vendor: Corning) were used for study the Phase I stability of test articles. […] The reaction was initiated by addition of 80 μL of the NADPH regenerating system to 320 µL of each incubation mixture per time point. […] The 0-minute samples were prepared by addition of an 80 μL aliquot of each incubation mixture to 400 μL quench reagent to precipitate proteins. And then a 20 μL aliquot of the NADPH regenerating system was added. At 10, 30, and 90 minutes, the reaction will be stopped by the addition of cold acetonitrile solution containing tolbutamide and propanolol served as internal standard. The samples taken at all time points were centrifuged at 4000×g for 15 minutes. 80 μL of supernatant are taken into 96-well assay plates pre-added with 160 μL ultrapure water, and then analyzed by LC/MS/MS(Shimadzu LC30AD & API4000/API5000)). Concentrations of test articles, control compounds in the samples were determined by using LC/MS/MS) method. Plotting of the chromatograms and peak area integrations are carried out by Analyst (AB Sciex).
In the determination of the in vitro elimination constant, ke, of the control compounds, the analyte/internal standard peak area ratios will be converted to percentage remaining (% Remaining) with the following equation: […]
The slope was measured by the natural logarithm of the percentage of the residual compound and time, T½ and CLint were calculated according to the following formulas, V/M was equal to the 1/concentration of protein.

[2] = IC50 TYK2 ([…]) (1 mM ATP), TYK2 […], 1 mM ATP
[3] = IC50 JAK1 (5 nM) (1 m MATP), JAK1 5 nM, 1 mM ATP
[4] = IC50 JAK2 ([…]) (1 mM ATP), 1 mM ATP
[5] = IC50 JAK2 ([…]) (Km ATP), Km ATP
[6] = IC50 JAK1 (10 nM) (Km ATP), JAK1 10 nM, Km ATP

T1 sequence (P29597 whole entry): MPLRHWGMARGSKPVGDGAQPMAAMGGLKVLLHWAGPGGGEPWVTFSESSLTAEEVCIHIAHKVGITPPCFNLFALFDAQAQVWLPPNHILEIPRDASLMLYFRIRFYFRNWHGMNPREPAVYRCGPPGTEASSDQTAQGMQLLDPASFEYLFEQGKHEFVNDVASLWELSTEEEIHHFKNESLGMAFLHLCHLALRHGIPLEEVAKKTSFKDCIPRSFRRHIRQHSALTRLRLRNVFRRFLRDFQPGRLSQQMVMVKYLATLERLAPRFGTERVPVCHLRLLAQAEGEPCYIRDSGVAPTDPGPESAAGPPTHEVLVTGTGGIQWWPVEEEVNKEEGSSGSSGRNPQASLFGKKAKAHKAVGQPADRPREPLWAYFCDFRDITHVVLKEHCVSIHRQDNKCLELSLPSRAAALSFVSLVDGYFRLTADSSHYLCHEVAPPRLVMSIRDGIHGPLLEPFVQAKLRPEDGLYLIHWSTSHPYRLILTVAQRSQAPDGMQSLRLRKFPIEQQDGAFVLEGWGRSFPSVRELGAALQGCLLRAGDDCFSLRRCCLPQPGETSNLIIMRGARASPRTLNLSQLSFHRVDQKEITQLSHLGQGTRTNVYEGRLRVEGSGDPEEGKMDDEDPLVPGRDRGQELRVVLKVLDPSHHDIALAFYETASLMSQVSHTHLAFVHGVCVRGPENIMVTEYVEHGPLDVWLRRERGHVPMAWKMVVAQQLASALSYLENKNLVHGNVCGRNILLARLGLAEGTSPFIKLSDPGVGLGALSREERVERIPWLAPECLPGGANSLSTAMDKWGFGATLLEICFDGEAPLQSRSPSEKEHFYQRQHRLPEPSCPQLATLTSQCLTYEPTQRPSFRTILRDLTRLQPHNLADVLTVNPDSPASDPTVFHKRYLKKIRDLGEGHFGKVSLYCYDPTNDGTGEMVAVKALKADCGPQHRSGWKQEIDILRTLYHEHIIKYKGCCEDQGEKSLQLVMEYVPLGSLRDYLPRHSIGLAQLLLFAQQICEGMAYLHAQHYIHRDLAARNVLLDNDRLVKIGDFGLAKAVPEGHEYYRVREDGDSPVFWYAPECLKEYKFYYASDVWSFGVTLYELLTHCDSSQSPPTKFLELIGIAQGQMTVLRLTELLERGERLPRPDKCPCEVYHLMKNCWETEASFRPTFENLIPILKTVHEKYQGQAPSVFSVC

Row | SMILES | pIC50 (TYK2; [2]) | pIC50 (JAK1; [3]) | pIC50 (JAK2V617F) | pIC50 (JAK2; [4]) | pIC50 (JAK2; [5]) | pIC50 (JAK1; [6]) | microsomal CLint at 1 μM [1] [µL/min/mg] | pIC50 (TYK2; IC50 TYK2 (10 nM) (Km ATP), TYK2 10 nM, Km ATP)
1 | Cc1cnc(Nc2cnn(C3CCN(C)C(=O)C3)c2)nc1-c1ccc(C(=O)NCC#N)cc1 (stereo not shown) [Example 66, N-(cyanomethyl)-4-(5-methyl-2-((1-(1-methyl-2-oxopiperidin-4-yl)-1H-pyrazol-4-yl)amino)pyrimidin-4-yl)benzamide] | 7.15 | 7.74 | 7.29 | – | – | – | – | –
2 | CC(C)(C#N)CNC(=O)c1ccc(-c2nc(Nc3cnn(C4CCOCC4)c3)ncc2Cl)cc1 [Example 80, 4-(5-Chloro-2-((1-(tetrahydro-2H-pyran-4-yl)-1H-pyrazol-4-yl)amino)pyrimidin-4-yl)-N-(2-cyano-2-methylpropyl)benzamide] | 6.43 | 7.64 | 8.11 | 9.24 | – | – | – | –
3 | Cc1cnc(Nc2cnn(C)c2)nc1-c1ccc(C(=O)NCC#N)cc1 [Example 11, N-(cyanomethyl)-4-(5-methyl-2-((1-methyl-1H-pyrazol-4-yl)amino)pyrimidin-4-yl)benzamide] | 7.08 | 7.71 | 6.94 | 7.33 | 8.89 | 8.48 | – | –
4 | Cc1cnc(Nc2cnn(C3CCN(C)CC3)c2)nc1-c1ccc(C(=O)NCC#N)cc1 [Example 49, N-(cyanomethyl)-4-(5-methyl-2-((1-(1-methylpiperidin-4-yl)-1H-pyrazol-4-yl)amino)pyrimidin-4-yl)benzamide] | 7.42 | 8.15 | 7.24 | 9.09 | – | – | – | –
5 | C[C@@H](C#N)NC(=O)c1ccc(-c2nc(Nc3cnn(C4CCN(C(=O)C(C)(C)C)CC4)c3)ncc2Cl)cc1 [Example 99, (S)-4-(5-Chloro-2-((1-(1-pivaloylpiperidin-4-yl)-1H-pyrazol-4-yl)amino)pyrimidin-4-yl)-N-(1-cyanoethyl)benzamide] | – | 7.63 | 8.88 | – | – | – | 113 | –
6 | C[C@@H](C#N)NC(=O)c1ccc(-c2nc(Nc3cnn(CC#N)c3)ncc2F)cc1 [Example 53, (S)—N-(1-cyanoethyl)-4-(2-((1-(cyanomethyl)-1H-pyrazol-4-yl)amino)-5-fluoropyrimidin-4-yl)benzamide] | 6.70 | 7.16 | 6.18 | 6.53 | – | – | – | –
7 | C[C@@H](C#N)NC(=O)c1ccc(-c2nc(Nc3cnn(CC#N)c3)ncc2Cl)cc1 [Example 46, (S)-4-(5-Chloro-2-((1-(cyanomethyl)-1H-pyrazol-4-yl)amino)pyrimidin-4-yl)-N-(1-cyanoethyl)benzamide] | 7.37 | 8.26 | 7.27 | 7.60 | – | – | – | –
8 | Cc1cnc(Nc2cnn(C3CCN(C(=O)C(C)(C)C)CC3)c2)nc1-c1ccc(C(=O)NCC#N)cc1 [Example 21, N-(Cyanomethyl)-4-(5-methyl-2-((1-(1-pivaloylpiperidin-4-yl)-1H-pyrazol-4-yl)amino)pyrimidin-4-yl)benzamide] | 7.76 | 7.96 | 8.45 | > 9.60 | > 9.60 | 8.65 | – | 9.29
9 | Cc1cnc(Nc2cnn(C3CC3)c2)nc1-c1ccc(C(=O)N[C@@H](C)C#N)cc1 [Example 94, (S)—N-(1-cyanoethyl)-4-(2-((1-cyclopropyl-1H-pyrazol-4-yl)amino)-5-methylpyrimidin-4-yl)benzamide] | 7.50 | 8.29 | 7.48 | 7.98 | – | – | – | –
10 | C[C@@H](C#N)NC(=O)c1ccc(-c2nc(Nc3cnn(C4CC(C)(C)OC(C)(C)C4)c3)ncc2Cl)cc1 [Example 206, (S)-4-(5-Chloro-2-((1-(2,2,6,6-tetramethyltetrahydro-2H-pyran-4-yl)-1H-pyrazol-4-yl)amino)pyrimidin-4-yl)-N-(1-cyanoethyl)benzamide] | 9.26 | 7.78 | – | > 9.60 | – | – | – | –
11 | Cc1cnc(Nc2cnn(C3CCNCC3)c2)nc1-c1ccc(C(=O)NCC#N)cc1 [Example 212, N-(cyanomethyl)-4-(5-methyl-2-((1-(piperidin-4-yl)-1H-pyrazol-4-yl)amino)pyrimidin-4-yl)benzamide] | 7.12 | 8.11 | – | 9.33 | – | – | – | –
12 | CC[C@@H](C#N)NC(=O)c1ccc(-c2nc(Nc3cnn(C4CCN(C)CC4)c3)ncc2F)cc1 [Example 59, (S)—N-(1-cyanopropyl)-4-(5-fluoro-2-((1-(1-methylpiperidin-4-yl)-1H-pyrazol-4-yl)amino)pyrimidin-4-yl)benzamide] | 6.95 | 7.63 | 6.87 | 7.08 | – | – | – | –
13 | Cc1cnc(Nc2cnn(C3CCC(O)CC3)c2)nc1-c1ccc(C(=O)N[C@@H](C)C#N)cc1 (stereo partly drawn) [Example 209, (S)—N-(1-cyanoethyl)-4-(2-((1-(4-hydroxycyclohexyl)-1H-pyrazol-4-yl)amino)-5-methylpyrimidin-4-yl)benzamide] | 8.04 | 7.84 | – | > 9.60 | – | – | – | –
14 | CC[C@@H](C#N)NC(=O)c1ccc(-c2nc(Nc3cnn(CCC#N)c3)ncc2C)cc1 [Example 217, (S)-4-(2-((1-(2-cyanoethyl)-1H-pyrazol-4-yl)amino)-5-methylpyrimidin-4-yl)-N-(1-cyanopropyl)benzamide] | 7.39 | 8.57 | – | 7.40 | – | – | – | –
15 | Cc1cnc(Nc2cnn(CCC#N)c2)nc1-c1ccc(C(=O)N[C@@H](C)C#N)cc1 [Example 216, (S)—N-(1-cyanoethyl)-4-(2-((1-(2-cyanoethyl)-1H-pyrazol-4-yl)amino)-5-methylpyrimidin-4-yl)benzamide] | 7.13 | 8.31 | – | 7.39 | – | – | – | –
16 | CC[C@@H](C#N)NC(=O)c1ccc(-c2nc(Nc3cnn(C4CCCNC4)c3)ncc2C)cc1 (stereo partly drawn) [Example 210, N—((S)-1-cyanopropyl)-4-(5-methyl-2-((1-(piperidin-3-yl)-1H-pyrazol-4-yl)amino)pyrimidin-4-yl)benzamide] | 7.05 | 7.94 | – | 8.62 | – | – | – | –
17 | CC[C@@H](C#N)NC(=O)c1ccc(-c2nc(Nc3cnn(C(C)C(F)(F)F)c3)ncc2C)cc1 (single isomer, unassigned) [Example 226, N—((S)-1-Cyanopropyl)-4-(5-methyl-2-((1-((S*)-1,1,1-trifluoropropan-2-yl)-1H-pyrazol-4-yl)amino)pyrimidin-4-yl)benzamide] | 7.24 | 8.37 | – | 7.49 | – | – | – | –
18 | CC[C@@H](C#N)NC(=O)c1ccc(-c2nc(Nc3cnn(CCC#N)c3)ncc2Cl)cc1 [Example 190, (S)-4-(5-chloro-2-((1-(2-cyanoethyl)-1H-pyrazol-4-yl)amino)pyrimidin-4-yl)-N-(1-cyanopropyl)benzamide] | 7.35 | 8.42 | – | 7.65 | – | – | – | –
19 | C[C@@H](C#N)NC(=O)c1ccc(-c2nc(Nc3cnn(CCO)c3)ncc2Cl)cc1 [Example 186, (S)-4-(5-chloro-2-((1-(2-hydroxyethyl)-1H-pyrazol-4-yl)amino)pyrimidin-4-yl)-N-(1-cyanoethyl)benzamide] | 7.40 | 8.61 | – | 7.60 | – | – | – | –
20 | C[C@@H](C#N)NC(=O)c1ccc(-c2nc(Nc3cn[nH]c3)ncc2Cl)cc1 [Example 188, (S)-4-(2-((1H-pyrazol-4-yl)amino)-5-chloropyrimidin-4-yl)-N-(1-cyanoethyl)benzamide] | 7.69 | 8.54 | – | 7.74 | – | – | – | –
